Molecules are shown by their SMILES.

FimH-CRD, sequence (P08191 22-177): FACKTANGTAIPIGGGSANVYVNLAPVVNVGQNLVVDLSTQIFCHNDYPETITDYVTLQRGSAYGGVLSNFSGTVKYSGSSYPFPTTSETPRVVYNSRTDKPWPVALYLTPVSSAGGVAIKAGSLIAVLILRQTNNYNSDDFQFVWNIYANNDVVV

The assay concerns the target FimH-CRD (Escherichia coli, UniProt P08191). The assay can be described thus: Competitive binding assay (fluorescence polarization, Alexa647 mannoside probe). The protocol:
The following competitive binding assay is performed: Round bottom, low volume 384-well microtiter plates are filled with 20 μl/well of a binding solution of FimH-CRD in 50 mM Tris, pH 7.0, 100 mM NaCl, 1 mM EDTA, 5 mM beta mercaptoethanol, 0.05% BSA, 5 nM of the Alexa647 mannoside probe and 60 nM of the FimH-CRD. Control wells using the same conditions but no FimH-CRD added are also prepared (protein-free). Compounds are serially diluted (12-point dose) in DMSO from 75 μM down to 0.4 nM. Compounds or DMSO are then added to each well (0.5 μl) to reach the final concentration of each drug (2.5% final DMSO concentration), in duplicate. Plates are then incubated for a minimum of five hours at room temperature in the dark. Plates are then read using the SpectaMax Paradigm Multi-Mode plate reader and the appropriate fluorescent polarization Detection cartridge (Alexa-647).
Alexa 647 mannoside probe is prepared using the similar procedure reported for FAM mannoside (Han, Z. et. al., 2010, J. Med. Chem., 53, 4779) and is described in the scheme below.
To a blue colored stirred solution of (2S,3S,4S,5S,6R)-2-(4-aminobutoxy)-6-(hydroxymethyl)tetrahydropyran-3,4,5-triol (2.21 mg, 0.009 mmol) and the (2E)-2-[(2E,4E)-5-[3,3-dimethyl-5-sulfonato-1-(3-sulfonatopropyl)indol-1-ium-2-yl]penta-2,4-dienylidene]-3-[6-(2,5-dioxopyrrolidin-1-yl)oxy-6-oxo-hexyl]-3-methyl-1-(3-sulfonatopropyl)indoline-5-sulfonate (Potassium Ion (3)) (4.9 mg, 0.0044 mmol) in DMF (44 μL) is added Et3N (5.4 mg, 7.0 μL, 0.053 mmol) at rt. The solution is stirred at room temperature over night, concentrated, dissolved in water and purified on 12 g C-18 silica gel cartridge on Isolera system using acetonitrile in water (0 to 40%, 10 CV) and followed by lyophilization to afford Alexa 647 mannoside probe (3.3 mg, 34%) as deep blue solid.
The Kd values of the compounds tested in duplicates are calculated with prism software (GraphPad Software, Inc, La Jolla, USA) with Alexa-647 probe and FimH-CRD.
On the technique in general: Fluorescence polarisation rises when a labelled molecule tumbles more slowly, as on binding a larger partner.
As usually defined, the Kd is the free concentration of one partner at which half of the binding sites on the other are occupied at equilibrium, for simple one-to-one binding. The low end stands for a tighter complex, the high end for a looser complex. The compound `CNC(=O)c1cccc(-c2ccc(O[C@H]3O[C@H](CO)[C@@H](O)[C@H](C(O)[C@H]4O[C@H](CO)[C@@H](O)[C@H](O)[C@@H]4O)[C@@H]3O)cc2)c1` (stereo partly drawn) [Compound 1, 3-[4-[(2R,3S,4R,5S,6R)-3,5-Dihydroxy-6-(hydroxymethyl)-4-[hydroxy-[(2R,3S,4S,5S,6R)-3,4,5-trihydroxy-6-(hydroxymethyl)tetrahydropyran-2-yl]methyl]tetrahydropyran-2-yl]oxyphenyl]-N-methyl-benzamide] came in with a Kd of 29 nM.
Take `CO[C@H]1O[C@H](CO)[C@@H](O)[C@H](C(O)[C@H]2O[C@H](CO)[C@@H](O)[C@H](O)[C@@H]2O)[C@@H]1O` (stereo partly drawn) [Compound 2, (2R,3S,4S,5S,6R)-2-[[(2R,3S,4R,5S,6S)-3,5-Dihydroxy-2-(hydroxymethyl)-6-methoxy-tetrahydropyran-4-yl]-hydroxy-methyl]-6-(hydroxymethyl)tetrahydropyran-3,4,5-triol]: the Kd came out at 124 nM.
In turn, `CNC(=O)c1cccc(-c2ccc(O[C@H]3O[C@H](CO)[C@@H](O)[C@H](C[C@H]4O[C@H](CO)[C@@H](O)[C@H](O)[C@@H]4O)[C@@H]3O)cc2)c1` [Compound 3, 3-[4-[(2R,3S,4S,5S,6R)-3,5-Dihydroxy-6-(hydroxymethyl)-4-[[(2R,3S,4R,5S,6R)-3,4,5-trihydroxy-6-(hydroxymethyl)tetrahydropyran-2-yl]methyl]tetrahydropyran-2-yl]oxyphenyl]-N-methyl-benzamide] gave a Kd of 66 nM.
`CNC(=O)c1cccc(-c2ccc(O[C@H]3O[C@H](CO)[C@@H](O)[C@H](C[C@H]4O[C@H](CO)[C@@H](O)[C@H](O)[C@@H]4O)[C@@H]3O)c(C)c2)c1` [Compound 4, 3-[4-[(2R,3S,4S,5S,6R)-3,5-Dihydroxy-6-(hydroxymethyl)-4-[[(2R,3S,4R,5S,6R)-3,4,5-trihydroxy-6-(hydroxymethyl)tetrahydropyran-2-yl]methyl]tetrahydropyran-2-yl]oxy-3-methyl-phenyl]-N-methyl-benzamide] came in with a Kd of 51 nM.
Regarding `CNC(=O)c1cccc(O[C@H]2O[C@H](CO)[C@@H](O)[C@H](C[C@H]3O[C@H](CO)[C@@H](O)[C@H](O)[C@@H]3O)[C@@H]2O)c1` [Compound 5, 3-[(2R,3S,4S,5S,6R)-3,5-Dihydroxy-6-(hydroxymethyl)-4-[[(2R,3S,4R,5S,6R)-3,4,5-trihydroxy-6-(hydroxymethyl)tetrahydropyran-2-yl]methyl]tetrahydropyran-2-yl]oxy-N-methyl-benzamide], the Kd stood at 72 nM.
Turning to `OC[C@H]1O[C@H](C[C@@H]2[C@H](O)[C@@H](Oc3cccc(O)c3)O[C@H](CO)[C@H]2O)[C@@H](O)[C@@H](O)[C@@H]1O` [Compound 6, (2R,3S,4R,5S,6R)-2-[[(2R,3S,4S,5S,6R)-3,5-Dihydroxy-2-(hydroxymethyl)-6-(3-hydroxyphenoxy)tetrahydropyran-4-yl]methyl]-6-(hydroxymethyl)tetrahydropyran-3,4,5-triol], binding was characterised by a dissociation constant (Kd) of 301 nM.
The compound `Cc1nnc(-c2ccc(-c3ccc(O[C@H]4O[C@H](CO)[C@@H](O)[C@H](C[C@H]5O[C@H](CO)[C@@H](O)[C@H](O)[C@@H]5O)[C@@H]4O)cc3)cc2)o1` [Compound 7, (2R,3S,4R,5S,6R)-2-[[(2R,3S,4S,5S,6R)-3,5-Dihydroxy-2-(hydroxymethyl)-6-[4-[4-(5-methyl-1,3,4-oxadiazol-2-yl)phenyl]phenoxy]tetrahydropyran-4-yl]methyl]-6-(hydroxymethyl)tetrahydropyran-3,4,5-triol] registered a Kd of 94 nM.
In the case of `CNC(=O)c1cc(C(=O)NC)cc(-c2ccc(O[C@H]3O[C@H](CO)[C@@H](O)[C@H](C[C@H]4O[C@H](CO)[C@@H](O)[C@H](O)[C@@H]4O)[C@@H]3O)cc2)c1` [Compound 8, 5-[4-[(2R,3S,4S,5S,6R)-3,5-Dihydroxy-6-(hydroxymethyl)-4-[[(2R,3S,4R,5S,6R)-3,4,5-trihydroxy-6-(hydroxymethyl)tetrahydropyran-2-yl]methyl]tetrahydropyran-2-yl]oxyphenyl]-N1,N3-dimethyl-benzene-1,3-dicarboxamide] it was 64 nM; in that of `CNC(=O)Cc1cccc(-c2ccc(O[C@H]3O[C@H](CO)[C@@H](O)[C@H](C[C@H]4O[C@H](CO)[C@@H](O)[C@H](O)[C@@H]4O)[C@@H]3O)cc2)c1` [Compound 9, 2-[3-[4-[(2R,3S,4S,5S,6R)-3,5-Dihydroxy-6-(hydroxymethyl)-4-[[(2R,3S,4R,5S,6R)-3,4,5-trihydroxy-6-(hydroxymethyl)tetrahydropyran-2-yl]methyl]tetrahydropyran-2-yl]oxyphenyl]phenyl]-N-methyl-acetamide], 79 nM; in that of `CNC(=O)Cc1cccc(-c2cccc(O[C@H]3O[C@H](CO)[C@@H](O)[C@H](C[C@H]4O[C@H](CO)[C@@H](O)[C@H](O)[C@@H]4O)[C@@H]3O)c2)c1` [Compound 10, 2-[3-[3-[(2R,3S,4S,5S,6R)-3,5-Dihydroxy-6-(hydroxymethyl)-4-[[(2R,3S,4R,5S,6R)-3,4,5-trihydroxy-6-(hydroxymethyl)tetrahydropyran-2-yl]methyl]tetrahydropyran-2-yl]oxyphenyl]phenyl]-N-methyl-acetamide], 50 nM.
The result for `O=c1[nH]cc(-c2ccc(O[C@H]3O[C@H](CO)[C@@H](O)[C@H](C[C@H]4O[C@H](CO)[C@@H](O)[C@H](O)[C@@H]4O)[C@@H]3O)cc2)c(=O)[nH]1` [Compound 11, 5-[4-[(2R,3S,4S,5S,6R)-3,5-Dihydroxy-6-(hydroxymethyl)-4-[[(2R,3S,4R,5S,6R)-3,4,5-trihydroxy-6-(hydroxymethyl)tetrahydropyran-2-yl]methyl]tetrahydropyran-2-yl]oxyphenyl]-1H-pyrimidine-2,4-dione] reads 97 nM; that for `O=C1NCC(c2ccc(O[C@H]3O[C@H](CO)[C@@H](O)[C@H](C[C@H]4O[C@H](CO)[C@@H](O)[C@H](O)[C@@H]4O)[C@@H]3O)cc2)=C(O)N1` [Compound 12, 5-[4-[(2R,3S,4S,5S,6R)-3,5-Dihydroxy-6-(hydroxymethyl)-4-[[(2R,3S,4R,5S,6R)-3,4,5-trihydroxy-6-(hydroxymethyl)tetrahydropyran-2-yl]methyl]tetrahydropyran-2-yl]oxyphenyl]-6-hydroxy-3,4-dihydro-1H-pyrimidin-2-one], 111 nM.
`CNC(=O)c1cc(C(=O)NC)cc(-c2cccc(O[C@H]3O[C@H](CO)[C@@H](O)[C@H](C[C@H]4O[C@H](CO)[C@@H](O)[C@H](O)[C@@H]4O)[C@@H]3O)c2)c1` [Compound 13, 5-[3-[(2R,3S,4S,5S,6R)-3,5-Dihydroxy-6-(hydroxymethyl)-4-[[(2R,3S,4R,5S,6R)-3,4,5-trihydroxy-6-(hydroxymethyl)tetrahydropyran-2-yl]methyl]tetrahydropyran-2-yl]oxyphenyl]-N1,N3-dimethyl-benzene-1,3-dicarboxamide]: binding was put at a Kd of 48 nM.
In the case of `CNC(=O)c1ccc(-c2ccc(C)c(O[C@H]3O[C@H](CO)[C@@H](O)[C@H](C[C@H]4O[C@H](CO)[C@@H](O)[C@H](O)[C@@H]4O)[C@@H]3O)c2)cc1` [Compound 15, 4-[3-[(2R,3S,4S,5S,6R)-3,5-Dihydroxy-6-(hydroxymethyl)-4-[[(2R,3S,4R,5S,6R)-3,4,5-trihydroxy-6-(hydroxymethyl)tetrahydropyran-2-yl]methyl]tetrahydropyran-2-yl]oxy-4-methyl-phenyl]-N-methyl-benzamide] it was 19 nM.

The values above are taken from patent US20140107049A1, “MANNOSE DERIVATIVES FOR TREATING BACTERIAL INFECTIONS” (priority 2012, published 2014).
